Square brackets hold non-standard residues; d marks the D form. Peptide text beside a SMILES is read from it. Met(O) = CS(=O)CC[C@H](N)C(=O)O; βAla = NCCC(=O)O
Columns and labels:
human red blood cells = assay: Determination of haemolytic activity; format: cell-based; settings: human red blood cells (5% v/v), 1 h at 37 °C; concentration for lysis of 50% of erythrocytes
Description: The peptides in the concentrations 2-400 µmol.1^-1 were incubated with the suspension of human red blood cells (5% v/v) for 1 h at 37 °C in a physiological solution at a final volume of 0.2 ml. The samples were then centrifuged for 5 min at 250 g. The absorbance of the supernatant was determined at 540 nm. 0.2% (v/v) TRITON X100 was used as a control for 100% haemolysis. Haemolytic activity is expressed as the peptide concentration required for lysis of 50% of human erythrocytes in the assay (LC50). Table 2. Antimicrobial and haemolytic activity of I up to XIII peptides and tetracycline.

[1] = system: S. aureus (clin. isolate Liberec); assay: Induced osteomyelitis model in femur heads: effect of peptides released from carrier on infection in the bone graft; format: cell-based; settings: ChronOS (200 mg); 10 mg; two days; carrier without peptide 1,4x10^7
Description: (§1) 3-4 holes of a diameter of 5 mm and a depth of 10 mm are drilled with a surgical spoon into a femur head under sterile conditions (spongy part of the bone in the resection site). Thereafter, this bone graft is put into a beaker of appropriate size and lined with sterile gauze squares. The gauze is moistened with sterile physiological saline to prevent drying of the bone. Then, suspension of multiplied microbes in an appropriate medium (50-100 µl) at a concentration of 10^7 to 10^9 CFU is sequentially applied to the prepared holes in the bone graft and allowed to incubate for 1-2 days. […] Beaker with the infected bone graft is covered with a sterile Petri dish. During the experiment, induced osteomyelitis models are kept protected from light at room temperature.
(§2) After the incubation, the infected holes in the bone are filled with a mixture of the local carrier, and a peptide selected from the series of peptides of formulae I to XIII or their specific enantiomers (Figure 1). For comparison, one of the holes is filled with the local carrier without peptide, or the carrier filled with antibiotic (vancomycin or gentamicin). A commercially available two-component material supplied by Synthes (Synthes GmbH, Switzerland) under the name ChronOS Inject was used as the carrier. Its solid component comprises a mixture of calcium phosphates CaHPO4.2H2O and Ca3(PO4)2 and additives, the liquid component is 0.5% (vol./vol.) solution of hyaluronic acid.
(§3) After two days, the filling is thoroughly removed with a surgical spoon and empty holes are wiped with moistened sterile cotton swab, which is then extracted into 400 µl physiological saline. The extract is diluted in a tenfold serial dilution and each diluted suspension is cultured on agar in Petri dishes; the culture is evaluated on the following day. […] The result of the peptide effect is also compared with the result of the effect of antibiotics. In some cases, microbiological examination of the bone tissue taken with a surgical spoon from a deeper area of the drilled holes is performed. […] Table 3. Evaluation of the effect of antimicrobial peptides released from the carrier on an infection in the bone graft. Effect of antimicrobial activity is expressed in the number of CFU (colony-forming units) in the infected hole after swabbing.

Bacillus subtilis = format: cell-based; settings: B.s.; 37° C for 20 h
Description: (§4) Gram-positive bacteria (Bacillus subtilis, Staphylococcus aureus, Staphylococcus epidermidis and Enterococcus faecalis), Gram-negative bacteria (Escherichia coli and Pseudomonas aeruginosa) and the yeast (Candida albicans) were grown to exponential phase and then were diluted with fresh medium. BHI medium (Oxoid, Great Britain) was used for Enterococcus faecalis; YPD medium containing yeast extract, peptone and glucose was used for Candida albicans and LB medium (Sigma, Czech Republic) was used for the remaining microorganisms. Then the microorganisms were added to the solutions of the tested antimicrobial peptides in LB medium in multi-well plates, so that the final peptide concentration it the wells was in the range of 0.5 to 100 µmοl.1^-1. The plates were incubated at 37° C for 20 h while being continuously shaken in a Bioscreen C (Oy Growth Curves AB Ltd., Helsinki, Finland). Absorbance was measured at 540 nm every 15 min. Antimicrobial activity (Table 2) was determined as a quantitative minimum inhibitory concentration (MIC) by observing bacterial growth in the presence of different concentrations of tested peptides. In the experiments, ca 10^5 CFU of bacteria or candida per well were used. Tetracycline in a concentration range of 0.5 - 100 µmol.1^-1 was used as a standard.
(§5) Clinical isolates of bacteria were obtained from University Hospital in Motol, Prague, Czech Republic and from Liberec Regional Hospital, Czech Republic. Methicillin resistant Staphylococcus aureus (MRSA) 6271 and Pseudomonas aeruginosa 5482 were from the Czech National Collection of Type Cultures, the National Institute of Public Health, Prague, Czech Republic. Other bacteria were from the Czech Collection of Microorganisms, Brno, Czech Republic. Candida albicans came from the Faculty of Medicine, Palacky University, Olomouc, Czech Republic. Candida tropicalis ATCC 750 and Candida glabrata DSY 565 were obtained from the Institute of Physiology, Academy of Sciences of the Czech Republic.

Candida albicans = format: cell-based; settings: C.a.; 37° C for 20 h
Description: as §4, §5

Escherichia coli = format: cell-based; settings: E.c.; 37° C for 20 h
Description: as §4, §5

[2] = system: MRSA (clin. isolate Liberec); format: cell-based, Staphylococcus aureus; settings: 37° C for 20 h
Description: as §4, §5

[3] = system: MRSA (clin. isolate Motol); format: cell-based, Staphylococcus aureus; settings: 37° C for 20 h
Description: as §4, §5

MRSA 6271 [4] = format: cell-based, Staphylococcus aureus; settings: 37° C for 20 h
Description: as §4, §5

[5] = system: S.e. (clin. isolate Motol); format: cell-based, Staphylococcus epidermidis; settings: 37° C for 20 h
Description: as §4, §5

[6] = system: E.f. (clin. isolate Motol); format: cell-based, Enterococcus faecalis; settings: 37° C for 20 h
Description: as §4, §5

[7] = system: P.a. (clin. isolate Liberec); format: cell-based, Pseudomonas aeruginosa; settings: 37° C for 20 h
Description: as §4, §5

P.a. 5482 = format: cell-based, Pseudomonas aeruginosa; settings: 37° C for 20 h
Description: as §4, §5

[8] = system: S. epidermidis (clin. isolate Motol); assay: Induced osteomyelitis model in femur heads: effect of peptides released from carrier on infection in the bone graft; format: cell-based; settings: 10 mg, two days
Description: as §1, §2, §3

MRSA 6271 [9] = assay: Biofilm formation on the surface of a bone cement implant in femur heads; format: cell-based, Staphylococcus aureus; settings: two days, cement without peptide 6.0x10^4
Description: The resulting elastic paste is placed into a 2 ml plastic syringe (without needle) and pressed into the infected holes in the spongy part of the bone, where it polymerizes and hardens. For comparison, other similarly infected holes are filled with cement containing only an antibiotic or antimycotic agent. For comparison, a Vancogenx® cement (Tecresa S. p. A., Italy) is used, made from a mixture of a powdered polymer component containing vancomycin and gentamicin. The mixture in an amount of 125 mg is mixed with liquid monomer (50-60 µl) and then pressed into the openings as described above. In another embodiment, the cements are applied to uninfected holes, allowed to harden, and then microbes are pipetted into the hole excavated between implants. From there they penetrate through bone tissue and settle on the implants with consequent formation of biofilms.
After two days, implants are removed with metal spikes and tweezers, mechanically cleaned from debris of bone tissue, and washed four times with physiological saline (0.5 ml) in plastic tubes to remove any residual planktonic microbes or bone cells from their surface. The implants in closed tubes with 0.4 ml saline are then sonicated four times for 3 min with occasional shaking. The of microbial biofilm on the surface of the implant is thus disrupted and microbes are loosed into the physiological saline. The resulting suspension is subsequently diluted using the tenfold serial dilution for culturing on agar.
Evaluation of the effect of antimicrobial peptides on the formation of microbial biofilm on the surface of the implant made of the bone cement.

| SMILES | Hemolytic activity LC50 (human red blood cells) [µM] | CFU/hole [1] | Antimicrobial activity MIC (Bacillus subtilis) | Antimicrobial activity MIC (Candida albicans) | Antimicrobial activity MIC (Escherichia coli) | Antimicrobial activity MIC [2] | Antimicrobial activity MIC [3] | Antimicrobial activity MIC (MRSA 6271 [4]) | Antimicrobial activity MIC [5] | Antimicrobial activity MIC [6] | Antimicrobial activity MIC [7] | Antimicrobial activity MIC (P.a. 5482) | CFU/hole ([8]; ChronOS (200 mg), carrier without peptide 7,2x10^4) | CFU/implant (MRSA 6271 [9]) [CFU/implant] | CFU/hole ([8]; ChronOS (300 mg), separate holes, carrier without peptide 1,2x10^5) [in all cases CFU/hole] |
| --- | --- | --- | --- | --- | --- | --- | --- | --- | --- | --- | --- | --- | --- | --- | --- |
| CC[C@@H](C)[C@@H](NC(=O)[C@@H](CCCCN)NC(=O)[C@@H](CCCCN)NC(=O)[C@@H](CC(C)C)NC(=O)[C@@H](CC(C)C)NC(=O)[C@@H](CCCCN)NC(=O)[C@@H](CCSC)NC(=O)[C@@H](Cc1c[nH]c2ccccc12)NC(=O)[C@H](N)CCCCN)C(=O)N[C@H](CC(C)C)C(=O)N[C@H](CCCCN)C(N)=O [II] (H-[dK][dW][dM][dK][dL][dL][dK][dK][dI][dL][dK]-NH2) | >400 | 1,8 x10^4 CFU/hole |  |  |  |  |  |  |  |  |  |  |  |  |  |
| CC[C@H](C)[C@H](NC(=O)[C@H](CCCCN)NC(=O)[C@H](CCCCN)NC(=O)[C@H](CC(C)C)NC(=O)[C@H](CC(C)C)NC(=O)[C@H](CCCCN)NC(=O)[C@H](CC(C)C)NC(=O)[C@H](Cc1c[nH]c2ccccc12)NC(=O)[C@H](CCCCN)NC(=O)CN)C(=O)N[C@@H](CC(C)C)C(=O)N[C@@H](CCCCN)C(N)=O [Peptide VII] (H-GKWLKLLKKILK-NH2) | 196 |  | 2,0 µmol.l^-1 | 16,0 µmol.l^-1 | 5,0 µmol.l^-1 | 8,0 µmol.l^-1 | 10,0 µmol.l^-1 | 10,0 µmol.l^-1 | 2,2 µmol.l^-1 | 50,7 µmol.l^-1 | 10,7 µmol.l^-1 | 4,0 µmol.l^-1 | 1,2 x10^2 CFU/hole |  |  |
| CC[C@H](C)[C@H](NC(=O)[C@H](CCCCN)NC(=O)[C@H](CCCCN)NC(=O)[C@H](CC(C)C)NC(=O)[C@H](CC(C)C)NC(=O)[C@H](CCCCN)NC(=O)[C@H](CC[S+](C)[O-])NC(=O)[C@H](Cc1c[nH]c2ccccc12)NC(=O)[C@H](CCCCN)NC(=O)CN)C(=O)N[C@@H](CC(C)C)C(=O)N[C@@H](CCCCN)C(N)=O (stereo partly drawn) [XII] (H-GKW[Met(O)]KLLKKILK-NH2) | >400 |  | 2,5 µmol.l^-1 | 21,3 µmol.l^-1 | 26,7 µmol.l^-1 | 11,5 µmol.l^-1 | 25,3 µmol.l^-1 | 64,0 µmol.l^-1 | 5,0 µmol.l^-1 | >100 µmol/L | 22,1 µmol.l^-1 | 5,0 µmol.l^-1 |  | 0 |  |
| CC[C@@H](C)[C@@H](NC(=O)[C@@H](CCCCN)NC(=O)[C@@H](CCCCN)NC(=O)[C@@H](CC(C)C)NC(=O)[C@@H](CC(C)C)NC(=O)[C@@H](CCCCN)NC(=O)[C@@H](CCSC)NC(=O)[C@@H](Cc1c[nH]c2ccccc12)NC(=O)[C@@H](CCCCN)NC(=O)CN)C(=O)N[C@H](CC(C)C)C(=O)N[C@H](CCCCN)C(N)=O [IV] | >400 |  | 1,4 µmol.l^-1 | 5,7 µmol.l^-1 | 3,0 µmol.l^-1 | 5,3 µmol.l^-1 | 9,7 µmol.l^-1 | 11,3 µmol.l^-1 | 2,0 µmol.l^-1 | 12,7 µmol.l^-1 | 12,5 µmol.l^-1 | 4,5 µmol.l^-1 |  |  |  |
| CC[C@H](C)[C@H](NC(=O)[C@H](CCCCN)NC(=O)[C@H](CCCCN)NC(=O)[C@H](CC(C)C)NC(=O)[C@H](CC(C)C)NC(=O)[C@H](CCCCN)NC(=O)[C@H](CCCCN)NC(=O)[C@H](Cc1c[nH]c2ccccc12)NC(=O)[C@H](CCCCN)NC(=O)CN)C(=O)N[C@@H](CC(C)C)C(=O)N[C@@H](CCCCN)C(N)=O [X] (H-GKWKKLLKKILK-NH2) | >400 |  | 2,4 µmol.l^-1 | 9,5 µmol.l^-1 | 11,5 µmol.l^-1 | 11,5 µmol.l^-1 | 25,3 µmol.l^-1 | 29,7 µmol.l^-1 | 4,7 µmol.l^-1 | >100 µmol/L | 9,5 µmol.l^-1 | 2,9 µmol.l^-1 |  |  |  |
| CC[C@@H](C)[C@@H](NC(=O)[C@@H](CCCCN)NC(=O)[C@@H](CCCCN)NC(=O)[C@@H](CC(C)C)NC(=O)[C@@H](CC(C)C)NC(=O)[C@@H](CCCCN)NC(=O)[C@@H](CCSC)NC(=O)[C@@H](Cc1c[nH]c2ccccc12)NC(=O)[C@@H](CCCCN)NC(=O)CCN)C(=O)N[C@H](CC(C)C)C(=O)N[C@H](CCCCN)C(N)=O [Peptide VI] (H-[βAla][dK][dW][dM][dK][dL][dL][dK][dK][dI][dL][dK]-NH2) | >400 |  |  |  |  |  |  |  |  |  |  |  |  |  |  |
| CC[C@@H](C)[C@@H](NC(=O)[C@@H](CCCCN)NC(=O)[C@@H](CCCCN)NC(=O)[C@@H](CC(C)C)NC(=O)[C@@H](CC(C)C)NC(=O)[C@@H](CCCCN)NC(=O)[C@H](NC(=O)[C@@H](Cc1c[nH]c2ccccc12)NC(=O)[C@@H](CCCCN)NC(=O)CN)C(C)C)C(=O)N[C@H](CC(C)C)C(=O)N[C@H](CCCCN)C(N)=O [IX] (H-G[dK][dW][dV][dK][dL][dL][dK][dK][dI][dL][dK]-NH2) | >400 |  |  |  |  |  |  |  |  |  |  |  |  |  | 0 |

— EP3570868B1, “[…] ANTIMICROBIAL PEPTIDES AND THEIR APPLICATIONS FOR THE TREATMENT AND PREVENTION OF MUSCU[…]” (Ustav Organicke Chemie a Biochemie AV CR, v.v.i., priority 2017, dated 2018)
